Test [1] relates to AR cellular signaling pathway. Briefly: THP-1 cells cultured 24 hrs with LPS, then DHT or AR inhibitor (FIG. 35, Table 7); pathway analysis. In kind it is cell-based. As to the method:
(§1) FIG. 35 Schematic overview of AR inhibitor experiment. Depicts the experimental setup to determine if AR inhibitors can be used to mitigate the effect of LPS on monocytes (THP-1 cells). […] In a parallel experiment, THP-1 cells are first cultured for 24 hours with LPS, after which the medium is changed and the cells are cultured with one of ARCC-4, ARD-266, A-458 and bicalutamide.
(§2) FIG. 35 describes the experimental set-up used. […] In a parallel experiment, THP-1 cells are first cultured for 24 hours with LPS, after which the medium is changed and the cells are cultured with one of ARCC-4, ARD-266, A-458 and bicalutamide.
All experimental conditions were subjected to cellular signaling pathways analysis.

Test [2] concerns TGFbeta cellular signaling pathway. Described as above. In kind it is cell-based. The method, then: as §1, §2
As expected the remaining AR inhibitors were not able to mitigate the effect of LPS on TGFbeta cellular signaling pathway activity.
AR and TGFbeta pathways are functional in monocytic cells (Table 7).

The subject of test [3] is ER cellular signaling pathway. The class given is cell-based. The method, then: as §1, §2
Test [4] has as its system HH (Hedgehog) cellular signaling pathway. In kind it is cell-based. As to the method: as §1, §2
For test [5], the system named is AR cellular signaling pathway. The test is described as follows: THP-1 sepsis prevention model, qPCR-based STP activity score. In kind it is cell-based. (In general: Real-time PCR tracks product formation cycle by cycle.)
For test [6], the system named is TGFbeta cellular signaling pathway. The description is as above. In kind it is cell-based.
Test [7] deals with AR pathway. The test is described as follows: THP-1 cell line stimulated with LPS or DHT and inhibited with Bicalutamide or Enzalutamide (Table 9A). The class given is cell-based. As to the method: (§3) LPS is considered the main mediator of the sepsis symptoms. An in vitro experiment was designed where monocytes were stimulated with LPS and subsequently treated with a variety of inhibitors. […] 26 Aug.
(§4) After stimulation cells were harvested and RNA was extracted using the RNeasy mini kit (Qiagen, 74104). qPCR-based STP activity scores were calculated using the Philips Research OncoSignal platform (www.philips.com/oncosignal), as described herein.

Test [8] has as its system TGFBeta pathway. Described as above. In kind it is cell-based. As to the method:
as §3, §4

For test [9], the system named is AR pathway. The test is described as follows: MOLT-4 lymphoid cell line stimulated with LPS or DHT and inhibited with Bicalutamide or Enzalutamide (Table 9B). Particulars: stimulated 5 hours and subsequently inhibited. The class given is cell-based. As to the method: (§5) MOLT-4 (ATCC CRL-1582) were cultured in RPMI1640 media, supplemented with 10% FBS, 1% glutamax and 1% pen strep at 37° C. 5% CO2.
as §4

Test [10] concerns TGFBeta pathway. The test is described as above. In kind it is cell-based. As to the method:
as §5, §4

Test [11] relates to AR pathway. The test is described as follows: PBMCs of sepsis patients treated in vitro 24 hours with inhibitors, pathway activity score. In kind it is cell-based, human. Details: AR Pathway activity scores of sepsis PBMC patients: scale not given here. To be noted: EXP 2, individual patient samples, Resatorvid 10 uM, D4-abiraterone 10 uM, A-485 100 nM, Galunisertib 10 uM. As to the method:
(§6) PBMC samples from healthy volunteers and sepsis patients were obtained via Tissue solutions. Briefly, cryopreserved PBMCs were first washed with washing buffer (PBS/1% BSA/2 mM EDTA), centrifuged and pellet resuspended in culture medium (RPM11640 without phenol red+8.5% charcoal stripped FBS+1% Glx+1% p/s). 0.5·10^5-1·10^6 cells were seeded per well in 24 wells plate and rested for 1 hour before treatment experiment. 10 PBMC samples from healthy donors were used to; (1) measure the baseline pathway levels, (2) activate with LPS
(§7) Sepsis treatment model: PBMC derived from sepsis patients (n=20) were treated 24 hours with compounds, DMSO or combination of compounds. (PBMC from healthy and sepsis patients are originating from the same hospital to minimize bias in sample prep). After stimulation cells were harvested and RNA was extracted using the RNeasy mini kit (Qiagen, 74104). qPCR was performed using the Philips Research OncoSignal platform.
(§8) In total 18 PBMCs sepsis samples were treated for 24 hours with selected inhibitors (and combinations), 6 patient samples per experiment.

For test [12], the system named is TGFbeta pathway. The test is described as above. Particulars: EXP 2, individual patient samples, Resatorvid 10 uM, D4-abiraterone 10 uM, A-485 100 nM, Galunisertib 10 uM. The class given is cell-based, human. Further details: scale not given here. As to the method: as §6, §7, §8
Where [13] appears, read: 24 hrs 25 uM Bicalutamide or DMSO, then 24 hrs DHT.
Setting [14] is: DHT (25 nM) alone or + Bicalutamide (5 uM) or Enzalutamide (5 uM).
Setting [15] is: 24 hrs 25 uM Bicalutamide or DMSO, then 24 hrs LPS.
The mark [16] stands for this setting: 24 hrs 25 uM Bicalutamide, then 24 hrs PBS.
Setting [17] is: THP-1, DHT (25 nM) alone or + Bicalutamide (5 uM) or Enzalutamide (5 uM), stimulated 5 hours and subsequently inhibited.
Where [18] appears, read: THP-1, LPS (50 ng/mL) alone or + Bicalutamide (5 uM) or Enzalutamide (5 uM), stimulated 5 hours and subsequently inhibited.
Setting [19] is: LPS (50 ng/mL) alone or + Bicalutamide (5 uM) or Enzalutamide (5 uM).
The mark [20] stands for this setting: MOLT-4, DHT (25 nM) alone or + Bicalutamide (5 uM) or Enzalutamide (5 uM), stimulated 5 hours and subsequently inhibited.
[21] abbreviates: MOLT-4, LPS (50 ng/mL) alone or + Bicalutamide (5 uM) or Enzalutamide (5 uM), stimulated 5 hours and subsequently inhibited.
Setting [22] is: THP-1, 24 hours LPS, medium changed, then inhibitor.

Where “and” joins values, the source holds several entries; their conditions need not be identical. Equal values may be shown once.

Turning to `C[C@]12CCC(=O)C[C@@H]1CC[C@@H]1[C@@H]2CC[C@]2(C)[C@@H](O)CC[C@@H]12` [DHT, dihydrotestosterone], in [1], the “AR cellular signaling pathway activity, effect of stimulus (FIG. 36)” value was “increase”. For the same compound, in test [2], the “TGFbeta signaling activity, effect of stimulus (FIG. 39)” value is reported as “did not increase”. In test [3], the “ER cellular signaling pathway activity (FIG. 37)” value was “not substantially affected”. Besides, in test [4], the “HH cellular signaling pathway activity (FIG. 38)” value was “not substantially affected”. Also, the “Average AR STP score” value in test [5] (setting [13]) is 6.13 normalized scores. Besides, the “Average TGFbeta STP score” value in test [6] (setting [13]) worked out at 1.27 normalized scores. The “AR STP activity” value was 8.7 normalized scores with AR pathway [7] and 7.5 normalized scores with AR pathway [9] (setting [14]). Further, the “TGFbeta STP activity” value in the test with TGFBeta pathway [8] was 12.9 normalized scores; in the test with TGFBeta pathway [10], 14.1 normalized scores.

Regarding “TGFbeta: original ligand for the TGFbeta STP added to monocytic cells”, the “TGFbeta pathway activity, ligand stimulation” value in [2] (monocytic cells (THP-1)) is reported as “induced activity”.

`CC(O)(CS(=O)(=O)c1ccc(F)cc1)C(=O)Nc1ccc(C#N)c(C(F)(F)F)c1` (centres unmarked) [Bicalutamide]: the “Average AR STP score” value in test [5] (setting [13]) amounted to 3.17 normalized scores; in [5] (setting [15]) it was 12.93 normalized scores; in test [5] (setting [16]), 2.63 normalized scores. For the same compound, the “Average TGFbeta STP score” value in test [6] (setting [13]) was 1.04 normalized scores; in [6] (setting [15]), 9.78 normalized scores; in [6] (setting [16]), 1.25 normalized scores. The “AR STP activity” value with AR pathway [7] (setting [17]) turned out to be 6.7 normalized scores; in the test with AR pathway [7] (setting [18]), 20.2 normalized scores; in the test on AR pathway [9] (setting [14]), 7.4 normalized scores; with AR pathway [9] (setting [19]), 7.2 normalized scores. Besides, the “TGFbeta STP activity” value with TGFBeta pathway [8] (setting [17]) is listed as 15.6 normalized scores; in the test with TGFBeta pathway [8] (setting [18]), 34.6 normalized scores; with TGFBeta pathway [10] (setting [20]), 13.9 normalized scores; in the test with TGFBeta pathway [10] (setting [21]), 14.1 normalized scores.

For the compound `CNC(=O)c1ccc(N2C(=S)N(c3ccc(C#N)c(C(F)(F)F)c3)C(=O)C2(C)C)cc1F` [Enzalutamide], the “AR STP activity” value in the test with AR pathway [7] (setting [17]) came to 6.0 normalized scores; in the test with AR pathway [7] (setting [18]), 20.4 normalized scores; in the test on AR pathway [9] (setting [14]) it was 7.3 normalized scores; in the test on AR pathway [9] (setting [19]) it was 6.3 normalized scores. The “TGFbeta STP activity” value in the test with TGFBeta pathway [8] (setting [17]) was found to be 17.3 normalized scores; in the test with TGFBeta pathway [8] (setting [18]) it was 33.6 normalized scores; in the test on TGFBeta pathway [10] (setting [20]), 14.1 normalized scores; in the test on TGFBeta pathway [10] (setting [21]), 14.1 normalized scores.

With `CNC(=O)Nc1ccc2c(c1)CC[C@@]21OC(=O)N(CC(=O)N(Cc2ccc(F)cc2)[C@@H](C)C(F)(F)F)C1=O` [A-485], the “LPS induced AR activity after addition of inhibitor (FIG. 36)” value in test [1] (setting [22]) is on record as “reduction of AR activity”. Further, the “LPS induced TGFbeta activity after addition of inhibitor (FIG. 39)” value in test [2] (setting [22]) is “reduction of LPS induced TGFbeta activity”. Also, the “AR Pathway activity scores of sepsis PBMC patients” value in the test on AR pathway [11] is 24 and 27 and 25. In addition, the “TGFbeta Pathway activity scores of sepsis PBMC patients” value in the test on TGFbeta pathway [12] is 28 and 33 and 35.

As for `C[C@]12CC[C@H]3[C@@H](CCC4=CC(=O)CC[C@@]43C)[C@@H]1CC[C@@H]2O` [Testosterone], the “AR pathway activity, ligand stimulation” value in test [1] (THP-1 cells) is listed as “induced activity”.

For the origin of these results see patent publication US20250262192A1, “PROGNOSTIC PATHWAYS FOR HIGH RISK SEPSIS PATIENTS” (KONINKLIJKE PHILIPS N.V., priority 2021, published 2025).
